Data published in PMC5296751, “N,N Dimethylacetamide a drug excipient that acts as bromodomain ligand for osteoporosis treatment” (Scientific Reports, 2017).

What was measured:
BRD4 = biological target: T1, BRD4 (Homo sapiens, UniProt O60885); experiment: X-ray crystal structure at […] Å (soaked crystals); IC50 from AlphaScreen; format: binding
T1 construct: residues 42–168, BRD4-BD1 (N-terminal bromodomain)

BRD2 = BRD2 (Homo sapiens, UniProt P25440); experiment: AlphaScreen binding inhibition assay with recombinant human BRD2
Chain of BRD2 (P25440 whole entry): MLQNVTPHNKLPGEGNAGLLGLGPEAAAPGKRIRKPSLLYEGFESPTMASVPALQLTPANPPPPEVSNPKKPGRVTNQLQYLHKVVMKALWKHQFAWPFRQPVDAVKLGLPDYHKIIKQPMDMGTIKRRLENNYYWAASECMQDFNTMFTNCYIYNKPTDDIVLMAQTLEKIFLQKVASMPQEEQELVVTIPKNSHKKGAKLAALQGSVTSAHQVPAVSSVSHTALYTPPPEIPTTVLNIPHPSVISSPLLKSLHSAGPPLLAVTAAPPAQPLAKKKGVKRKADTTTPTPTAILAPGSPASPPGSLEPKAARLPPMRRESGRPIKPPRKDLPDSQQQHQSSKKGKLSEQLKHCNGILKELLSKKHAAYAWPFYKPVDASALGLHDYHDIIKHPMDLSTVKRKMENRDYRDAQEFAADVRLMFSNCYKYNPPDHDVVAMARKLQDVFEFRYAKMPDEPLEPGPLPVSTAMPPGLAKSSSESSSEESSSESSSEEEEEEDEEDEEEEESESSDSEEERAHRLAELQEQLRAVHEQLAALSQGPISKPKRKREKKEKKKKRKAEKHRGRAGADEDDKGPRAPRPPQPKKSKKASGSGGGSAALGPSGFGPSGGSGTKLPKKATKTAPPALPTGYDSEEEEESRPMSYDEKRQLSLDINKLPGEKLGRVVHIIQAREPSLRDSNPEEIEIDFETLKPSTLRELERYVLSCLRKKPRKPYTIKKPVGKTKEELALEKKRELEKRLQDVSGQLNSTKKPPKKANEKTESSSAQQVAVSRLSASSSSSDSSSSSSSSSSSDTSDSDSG

Question: `CC(=O)N(C)C` [DMA, N,N-Dimethylacetamide] was tested. Which IC50 (BRD4) did it give?
Answer: 6 mM

Question: And the IC50 (BRD2)?
Answer: 11 mM
